Test results reported in patent publication US9737476B2, “Cosmetic use of an albizia julibrissin extract and corresponding topical composition” (Sederma, priority 2011, dated 2017).

Tests used:
MMP1 = experiment: Metalloproteinase in culture media after cigarette smoke extract stress (ELISA); format: cell-based, human; settings: Trolox 500 μM
Experimental: Human dermal fibroblasts are cultured until confluence. Then cells are contacted with or without the test products during 24 hours. Then cells are stressed with an extract of cigarette smoke with or without the test products. After a last incubation with or without the test products, metallo-proteinases MMP1 and MMP2 present in the culture media are measured by ELISA and reduced to the number of cells (evaluated with the Hoescht reagent).

Fibroblasts = experiment: Accumulation of lipofuscin AGE-pigment (dityrosine marker); format: cell-based, human; settings: Trolox 500 μM; p < 0.01
Description: Principle and protocol: MGO is indirectly involved in the production of another group of toxins called lipofuscin. This pigment, which is seen on skin sections, is yellow in colour. It is poorly characterised as it is formed from an aggregate of different damaged cell components. Reduced functioning of the proteasome allows it to accumulate. Glycation (and therefore alteration) of the proteasome promotes the accumulation of this toxic pigment.
The same “fatiguing” cell stress as above in point 2a was used, alternating two rest periods (+/− of Albizia Julibrissin extract) and 2 periods of stress (+/− the Albizia Julibrissin extract with 500 μM microns of MGO). At the end of the second glycating stress, a dosage of the lipofuscin marker, the dityrosine was performed on the cell and reduced to the number of cells.

[1] = system: human dermal fibroblasts (HDF); experiment: Measurement of carboxymethyl-lysine (CML) released by fibroblasts after MGO glycating stress (Elisa); format: cell-based; settings: aminoguanidine 0.03%; p < 0.01
Experimental: For the tests achieved on cell cultures, a hydro-glycolic extract obtained according to Example A) above comprising 2% of albizine was used at 0.006% diluted in aqueous excipients, of the type of cell culture media.
Principle and protocol: CML, a specific type of AGEs, accumulates during time in particular on the dermis proteins synthesized by fibroblasts. In vitro, on fibroblasts in culture, it is possible to accelerate this phenomenon by a glycating stress.
500 μM of methylglyoxal (MGO) were applied to confluent human dermal fibroblasts (HDF) to provoke AGE formation. After this glycating contact at 37° C. during 4 days, the MGO was removed from the cultures by rinsing and the Albizia Julibrissin extract was applied for 5 days. The supernatants were then removed for Elisa measurement of CML released by the fibroblasts. Cells were counted in parallel from the cell layers. Two independent tests were performed.

soluble bovine elastin = experiment: Non enzymatic glycation of elastin with fructose (fluorescence); format: biochemical
Experimental: Non-enzymatic glycation occurring between a protein and a reducing sugar like fructose or glucose is a spontaneous and slow reaction that can be accelerated by heat. In this test, the protein is soluble bovine elastin and the reducing sugar is fructose. They are incubated with or without test products at 50° C. for 9 days. Final products resulting from glycation may be quantified by fluorescence (λex=360 nm and λem=460 nm).

Molecule: Cc1c(C)c2c(c(C)c1O)CCC(C)(C(=O)O)O2 (stereo not drawn) [Trolox]
- MMP1 (MMP1; control stress 9200 +/− 1590): 3962 +/− 759 ng/10^6 cells
- % change in MMP1 vs. control stress (MMP1; p < 0.05): −57%; p < 0.05
- % change in dityrosine, positive MGO control (Fibroblasts): *AFU: Arbitrary fluorescence unit; positive MGO control: Trolox 500 μM: −61.1% (p < 0.01)

Molecule: N=C(N)NN [aminoguanidine]
- % change in CML, positive control [1]: Positive control aminoguanidine 0.03%; −41% CML; (p < 0.01).
- % change in glycation vs. control (soluble bovine elastin; aminoguanidine 0.03%, p < 0.01): Aminoguanidine 0.03%: −99%; p < 0.01

Molecule: Darutoside
- Glycation (soluble bovine elastin; 15 ppm (combination: 15 ppm Darutoside + 15 ppm extract), elastin + fructose, 50° C., 9 days, control 6096 +/− 438): 5843 +/− 383 UFA
